The text below walks through data of ChEMBL document CHEMBL5360534, “Synthetic α-glucosidase inhibitors as promising anti-diabetic agents: Recent developments and future challenges” (Eur J Med Chem, 2023).

Structures are written as SMILES.

The target of assay [1] is T1, Alpha-glucosidase (Saccharomyces cerevisiae S288c, UniProt P53341+P38158+P07265). As to the kind of experiment: Inhibition of Saccharomyces cerevisiae alpha-glucosidase using p-nitrophenyl-[…]-D-glucopyranoside as substrate preincubated for 15 mins followed by substrate addition and measured after 15 mins by absorbance based microplate reader analysis. In kind it is protein assay.

Assay [2] deals with T1, Alpha-glucosidase. The assay is described as follows: Inhibition of Saccharomyces cerevisiae alpha-glucosidase using p-nitrophenyl glucopyranoside as substrate preincubated for 10 mins followed by substrate addition and measured after 20 mins by spectrophotometric analysis. In kind it is protein assay.
In assay [3] the target is T1, Alpha-glucosidase. The assay is described as follows: Non-competitive inhibition of Saccharomyces cerevisiae alpha-glucosidase using p-nitrophenyl glucopyranoside as substrate assessed as inhibition constant preincubated for 15 mins followed by substrate addition and measured after 20 mins by spectrophotometric analysis. In kind it is protein assay.
For assay [4], the target named is T1, Alpha-glucosidase. The assay is described as follows: Inhibition of Saccharomyces cerevisiae alpha-glucosidase using p-nitrophenyl-alpha-D-glucopyranoside as substrate preincubated for 20 mins followed by substrate addition and measured after 30 mins by spectrophotometric analysis. In kind it is protein assay.
The target of assay [5] is T1, Alpha-glucosidase. The assay is described as follows: Competitive inhibition of Saccharomyces cerevisiae alpha-glucosidase using pNPG as substrate assessed as inhibition constant. In kind it is protein assay.
Assay [6] deals with T1, Alpha-glucosidase. The assay is described as follows: Inhibition of Saccharomyces cerevisiae alpha-glucosidase using pNPG as substrate. In kind it is protein assay.
Assay [7] is described as follows: Mixed-type inhibition of alpha-glucosidase (unknown origin) using p-nitropheny-alpha-D-glucopyranoside as substrate assessed as inhibition constant by measuring intercept versus drug/substrate concentration preincubated for 5 mins followed by substrate addition and measured after 10 mins by absorbance based microplate reader analysis. More on the design: species or system Homo sapiens.

Assay [8] in a line: Inhibition of alpha-glucosidase (unknown origin) using p-nitrophenyl-alpha-D-glucopyranoside as substrate preincubated for 5 mins followed by substrate addition and measured after 10 mins by absorbance based microplate reader analysis. Also on record: species or system Homo sapiens.
Assay [9] is described as follows: Mixed-type inhibition of alpha-glucosidase (unknown origin) using p-nitropheny-alpha-D-glucopyranoside as substrate assessed as inhibition constant by measuring secondary plot of 1/V versus drug concentration preincubated for 5 mins followed by substrate addition and measured after 10 mins by absorbance based microplate reader analysis. Also on record: species or system Homo sapiens.

In assay [10] the target is T1, Alpha-glucosidase. The assay is described as follows: Inhibition of Saccharomyces cerevisiae alpha-glucosidase using p-nitrophenyl-alpha-D-glucopyranoside as substrate preincubated for 10 mins followed by substrate addition and measured after 20 mins by absorbance based analysis. In kind it is protein assay.
For assay [11], the target named is T1, Alpha-glucosidase. As to the kind of experiment: Competitive inhibition of Saccharomyces cerevisiae alpha-glucosidase using p-nitrophenyl-alpha-D-glucopyranoside as substrate assessed as inhibition constant preincubated for 10 mins followed by substrate addition and measured after 20 mins by absorbance based analysis. In kind it is protein assay.
Assay [12] can be described thus: Inhibition of alpha-glucosidase (unknown origin) using PNP glycoside as substrate preincubated for 30 mins followed by substrate addition and measured after 1 min by spectrophotometric analysis. More on the design: species or system Homo sapiens.
Assay [13] has as its target T1, Alpha-glucosidase. As to the kind of experiment: Inhibition of Saccharomyces cerevisiae alpha-glucosidase using p-nitrophenyl glucopyranoside as substrate preincubated for 10 mins followed by substrate addition and measured after 30 mins by absorbance based microplate reader analysis. In kind it is protein assay.
Assay [14] concerns the target T1, Alpha-glucosidase. As to the kind of experiment: Inhibition of Saccharomyces cerevisiae alpha-glucosidase using p-nitrophenyl-alpha-D-glucopyranoside as substrate preincubated for 10 mins followed by substrate addition and measured after 20 mins by absorbance based microplate reader analysis. In kind it is protein assay.
The target of assay [15] is T1, Alpha-glucosidase. The assay is described as follows: Inhibition of Saccharomyces cerevisiae alpha-glucosidase using p-nitrophenyl-alpha-D-glucopyranoside as substrate incubated for 15 mins by UV-visible spectrophotometric analysis. In kind it is protein assay.
Assay [16] deals with T1, Alpha-glucosidase. As to the kind of experiment: Un-competitive inhibition of Saccharomyces cerevisiae alpha-glucosidase using p-nitrophenyl glucopyranoside as substrate assessed as inhibition constant preincubated for 15 mins followed by substrate addition and measured after 20 mins by spectrophotometric analysis. In kind it is protein assay.
Assay [17] can be described thus: Inhibition of alpha-glucosidase (unknown origin) using p-NPG as substrate assessed as inhibition constant preincubated with compound followed by substrate addition and measured by absorbance based analysis. Also on record: species or system Homo sapiens.
Assay [18] has as its target T1, Alpha-glucosidase. As to the kind of experiment: Competitive inhibition of Saccharomyces cerevisiae alpha-glucosidase using p-nitrophenyl glucopyranoside as substrate assessed as inhibition constant preincubated for 15 mins followed by substrate addition and measured after 20 mins by spectrophotometric analysis. In kind it is protein assay.
Assay [19] addresses T1, Alpha-glucosidase. As to the kind of experiment: Non-competitive inhibition of Saccharomyces cerevisiae alpha-glucosidase using p-nitrophenyl-alpha-D-glucopyranoside as substrate assessed as inhibition constant preincubated for 15 mins followed by substrate addition and measured after 30 mins by multiplate reader analysis. In kind it is protein assay.
Assay [20] concerns the target T1, Alpha-glucosidase. The assay is described as follows: Inhibition of Saccharomyces cerevisiae alpha-glucosidase using p-nitrophenyl-alpha-D-glucopyranoside as substrate preincubated for 15 mins followed by substrate addition and measured after 30 mins by multiplate reader analysis. In kind it is protein assay.
Assay [21] has as its target T1, Alpha-glucosidase. The assay is described as follows: Inhibition of Saccharomyces cerevisiae alpha-glucosidase using p-nitrophenyl-alpha-D-glucopyranoside as substrate preincubated with compound followed by substrate addition and measured after 30 mins by absorbance based analysis. In kind it is protein assay.
The next assay is filed under the species Homo sapiens. The assay is described as follows: Potency index, ratio of acarbose IC50 to test compound IC50 for inhibition of alpha-glucosidase (unknown origin) using p-nitrophenyl-alpha-D-glucopyranoside as substrate preincubated for 10 mins followed by substrate addition and measured after 20 mins by absorbance based analysis. The note with it: time 30.0 min.

Assay [22] in a line: Inhibition of alpha-glucosidase (unknown origin) using p-nitrophenyl-alpha-D-glucopyranoside as substrate preincubated for 10 mins followed by substrate addition and measured after 20 mins by absorbance based analysis. Also on record: species or system Homo sapiens.
The species entered for a further assay is Rattus norvegicus. The assay is described as follows: Anti-hyperglycemic activity against STZ-induced hyperglycemic rat model assessed as reduction in blood glucose level relative to control. Also on record: scale not given: the % may be the effect or the level left. In kind it is functional.
The nature of assay [23]: Inhibition of alpha-glucosidase (unknown origin). More on the design: species or system Homo sapiens.
Assay [24] concerns the target T1, Alpha-glucosidase. As to the kind of experiment: Inhibition of Saccharomyces cerevisiae alpha-glucosidase using pNPG as substrate by spectroscopic analysis. In kind it is protein assay.
The test system of another assay is Saccharomyces cerevisiae. The assay is described as follows: Potency index, ratio of acarbose IC50 to test compound IC50 for inhibition of Saccharomyces cerevisiae alpha-glucosidase type I using p-nitrophenyl-alpha-D-glucopyranoside as substrate preincubated for 10 mins followed by substrate addition and measured after 30 mins by absorbance based analysis. The note with it: time 40.0 min.

A short description of assay [25]: Inhibition of Saccharomyces cerevisiae alpha-glucosidase type I using p-nitrophenyl-alpha-D-glucopyranoside as substrate preincubated for 10 mins followed by substrate addition and measured after 30 mins by absorbance based analysis.
Assay [26] in a line: Inhibition of rat intestinal alpha-glucosidase.
A short description of assay [27]: Inhibition of rat intestinal alpha-glucosidase assessed as inhibition constant.
Assay [28] deals with T1, Alpha-glucosidase. As to the kind of experiment: Inhibition of Saccharomyces cerevisiae alpha-glucosidase using p-nitrophenyl-alpha-D-glucopyranoside as substrate preincubated for 5 mins followed by substrate addition and measured after 30 mins by absorbance based microplate reader analysis. In kind it is protein assay.
The nature of assay [29]: Competitive inhibition of alpha-glucosidase (unknown origin) assessed as inhibition constant. Also on record: species or system Homo sapiens.
The nature of assay [30]: Inhibition of alpha-glucosidase (unknown origin) using 4-nitrophenyl-[…]-D-glucopyranoside as substrate preincubated for 20 mins followed by substrate addition and measured after 1 hr by absorbance based analysis. Also on record: species or system Homo sapiens.

In general, IC50 refers to the point on the concentration scale where inhibition reaches its midpoint. For `O=C1Nc2ccc([N+](=O)[O-])cc2C1(c1c[nH]c2ccc(O)cc12)c1c[nH]c2cccc(O)c12` (stereo unspecified), at Alpha-glucosidase [1], the half-maximal inhibitory concentration (IC50) came to 67 µM.
The term Ki denotes the equilibrium dissociation constant of an inhibitor or competing ligand from its target. Regarding `N#CC1=C(N)Oc2c(c(=O)[nH]c3c2ccc2ccccc23)C1c1ccc(Br)cc1` (stereo unspecified), the IC50 on Alpha-glucosidase [2] was 15.7 µM. Further, at Alpha-glucosidase [3], the Ki was 28 µM.
As for `CC(C)=C(C)CSc1nnc(-c2cc(OCC(F)(F)F)ccc2OCC(F)(F)F)o1`, the half-inhibitory concentration (IC50) on Alpha-glucosidase [4] is 46.01 µM.
On to `COc1cc(-c2[nH]c3ccccc3c2/C=N/NC(=S)Nc2ccccc2)cc(OC)c1OC`, for which the Ki at Alpha-glucosidase [5] worked out at 27 µM. Besides, the 50% inhibitory concentration (IC50) against Alpha-glucosidase [6] amounted to 27 µM.
On to `O=C1CNC(=S)N1C(=O)c1cc([N+](=O)[O-])cc([N+](=O)[O-])c1`, for which the Ki in [7] is 156 µM; in assay [9], 34 µM. Also, the half-inhibitory concentration (IC50) in assay [8] was found to be 50 µM.
On to `Cc1ccc(NC(=O)Oc2ccc(-c3nc4ccccn4c3NC(C)(C)C)cc2)cc1`, for which the IC50 at Alpha-glucosidase [10] amounted to 75.6 µM. Also, on Alpha-glucosidase [11], the Ki came to 71 µM.
As for `C(=N\Nc1nc(-c2ccc(-c3ccccc3)cc2)cs1)/c1cccc2ccccc12`, the IC50 in [12] stood at 6.2 µM.
At Alpha-glucosidase [13], `Cc1cccc(NC(=O)CSc2nnc(Cc3c[nH]c4ccccc34)o2)c1` came in with an IC50 of 9.37 µM.
On to `O=C1CS/C(=N\N=C\c2ccc(OS(=O)(=O)c3ccccc3[N+](=O)[O-])cc2)N1`, for which the half-inhibitory concentration (IC50) against Alpha-glucosidase [14] worked out at 42.8 µM.
Regarding `OC[C@H]1O[C@H](OCc2cn(C[C@H]3O[C@@H]4O[C@H]5[C@H](O)[C@@H](O)[C@@H](O[C@H]6[C@H](O)[C@@H](O)[C@@H](O[C@H]7[C@H](O)[C@@H](O)[C@@H](O[C@H]8[C@H](O)[C@@H](O)[C@@H](O[C@H]9[C@H](O)[C@@H](O)[C@@H](O[C@H]%10[C@H](O)[C@@H](O)[C@@H](O[C@H]%11[C@H](O)[C@@H](O)[C@@H](O[C@H]3[C@H](O)[C@H]4O)O[C@@H]%11Cn3cc(CO[C@H]4O[C@H](CO)[C@@H](O)[C@H](O)[C@@H]4O)nn3)O[C@@H]%10Cn3cc(CO[C@H]4O[C@H](CO)[C@@H](O)[C@H](O)[C@@H]4O)nn3)O[C@@H]9Cn3cc(CO[C@H]4O[C@H](CO)[C@@H](O)[C@H](O)[C@@H]4O)nn3)O[C@@H]8Cn3cc(CO[C@H]4O[C@H](CO)[C@@H](O)[C@H](O)[C@@H]4O)nn3)O[C@@H]7Cn3cc(CO[C@H]4O[C@H](CO)[C@@H](O)[C@H](O)[C@@H]4O)nn3)O[C@@H]6Cn3cc(CO[C@H]4O[C@H](CO)[C@@H](O)[C@H](O)[C@@H]4O)nn3)O[C@@H]5Cn3cc(CO[C@H]4O[C@H](CO)[C@@H](O)[C@H](O)[C@@H]4O)nn3)nn2)[C@@H](O)[C@@H](O)[C@@H]1O`, the IC50 against Alpha-glucosidase [15] stood at 32 µM.
As for `N#CC1=C(N)Oc2c(c(=O)[nH]c3c2ccc2ccccc23)C1c1ccc(Cl)cc1` (stereo unspecified), on Alpha-glucosidase [2], the IC50 is 10.3 µM. At Alpha-glucosidase [16], the inhibition constant Ki came to 11 µM.
In the case of `COc1c(C(=O)/C=C/c2ccc(Br)cc2)c(OC)c(C(=O)/C=C/c2ccc(Br)cc2)c(OC)c1C(=O)/C=C/c1ccc(Br)cc1`, in assay [17], the Ki turned out to be 0.0039 µM.
Compound `O=C(Cn1cc(CNC(=O)c2c3ccccc3nc3ccccc23)nn1)Nc1cccc(Br)c1` returned a concentration for half-maximal inhibition (IC50) at Alpha-glucosidase [2] of 80.3 µM. Also, at Alpha-glucosidase [18], the Ki stood at 78 µM.
As for `Oc1ccc(Br)cc1-c1nc2cc(Cl)ccc2s1`, the Ki at Alpha-glucosidase [19] amounted to 16.03 µM. This compound also showed a half-inhibitory concentration (IC50) against Alpha-glucosidase [20] of 22.1 µM.
Regarding `CC1=NN(c2ccc([N+](=O)[O-])cc2)C(=O)/C1=C/c1cn(-c2ccccc2)nc1-c1cc2cc(Br)ccc2oc1=O`, the half-maximal inhibitory concentration (IC50) at Alpha-glucosidase [21] came to 2.1 µM.
`N#CC(c1c[nH]c2ccc(Br)cc12)c1c[nH]c2ccc(Br)cc12`: in the assay listed under Homo sapiens, the Ratio IC50 came to 30. The compound further showed a 50% inhibitory concentration (IC50) in assay [22] of 7.54 µM.
With `COc1ccc(-n2c(SCC(=O)N/N=C/c3ccc(O)cc3)nc3ccccc3c2=O)cc1`, the Activity in the assay filed under Rattus norvegicus was found to be 43.07%. In [23], this compound came in with an IC50 of 561 µM.
In turn, `Brc1cccc(CSc2nnc(-c3ccc4nc(-c5ccccc5)c(-c5ccccc5)nc4c3)o2)c1` had a half-maximal inhibitory concentration (IC50) against Alpha-glucosidase [24] of 0.02847 µM.
As for `Cc1nn(-c2ccc(Nc3cccc(Cl)c3)nn2)c(C)c1[N+](=O)[O-]`, the Ratio IC50 in the assay on Saccharomyces cerevisiae is 1.98. In assay [25], this compound returned an IC50 of 19.3 µM.
Turning to `N[C@H]1[C@H](O)[C@@H](O)[C@H](O)[C@@H](CO)[C@@H]1CCO`, the IC50 in [26] is 5.8 µM. Also, in assay [27], the Ki is 6.3 µM.
On Alpha-glucosidase [28], `COc1cccc(NC(=O)Cn2nc3c(c2C)N(C)Sc2ccccc2-3)c1` gave an IC50 of 5.8 µM.
Turning to `Cn1cnnc1SC(=O)c1ccc(-c2ccccc2Cl)o1`, in [29], the Ki was 5.1 µM. In assay [23], this compound came in with an IC50 of 2.2 µM.
As for `Oc1ccccc1-c1cc(-c2ccc(C(F)(F)F)cc2)n(-c2ccccc2)n1`, the IC50 in [30] was 115 µM.
